Experimental data published in US20250263408A1 (Uniquest Pty Ltd, priority 2022, published 2025).

Legend:
[1] = test system: Ba/F3-WT (wild type) cells; experiment: Ba/F3 Proliferation Assay, Ba/F3-WT (wild type) cells with mIL-3 (Resazurin); format: cell-based; details: Ba/F3-WT cells +mIL-3, 48-hour incubation
[2] = target: T1, Syk (Homo sapiens, UniProt P43405); experiment: Syk Biochemical Assay (ADP-Glo luminescence); details: ATP 40 μM final, 60 minutes, read-out: SYK Biochem IC50
T1 construct: purchased Promega
Procedure: Compounds were serially diluted in 100% DMSO, prior to an intermediate dilution in water. In a low volume white 384-well Proxiplate (Perkin Elmer), 1 μL of compound (0.4% final DMSO) was added to 3 μL of 10 ng/well Syk (Promega) and 0.2 mg/mL Poly-E4Y1 substrate (Promega) in assay buffer (final 40 mM Tris-HCl pH 7.4, 20 mM MgCl2, 0.1 mg/mL BSA) for 5 minutes. The reaction was initiated by addition of 1 μL of ATP (40 μM final) and allowed to proceed for 60 minutes at room temperature. The reaction was terminated by addition of 5 μL of ADP-Glo Reagent Mix (Promega) containing 1 mM MgCl2 for 45 minutes at room temperature. 10 μL of Kinase Detection Reagent (Promega) was added and incubated for 10 minutes at room temperature, before luminescence was measured using an Ensight Multimode Plate Reader (Perkin Elmer).

[3] = target: T2, Ba/F3-Syk cells (Homo sapiens, UniProt P43405); experiment: Ba/F3 Proliferation Assay, Ba/F3-Syk cells (Resazurin); format: cell-based; details: 48-hour incubation
T2 construct: fused on or other part: Possible but unprinted fusion partner: TEL (ETV6), the usual partner for Ba/F3 lines transformed by Syk; Nothing on a partner is printed

`CC(C)(C)n1cc(-c2cc3ncccc3c(OC[C@@H]3CNC[C@@H](C(F)(F)F)O3)n2)cn1` [Compound 13.14, 7-(1-tert-butyl-1H-pyrazol-4-yl)-5-{[(2S,6S)-6-(trifluoromethyl)morpholin-2-yl]methoxy}-1,6-naphthyridine] gave an EC50 ([1]; Mus musculus, BaF3, 48 h) of 1.38 µM, an IC50 [2] of 0.035 µM and an EC50 [3] of 0.233 µM.
`c1cnc2cc(-c3cnn(C4CC4)c3)nc(OC[C@@H]3CNCCO3)c2c1` [Compound 2.21, 7-(1-cyclopropyl-1H-pyrazol-4-yl)-5-{[(2S)-morpholin-2-yl]methoxy}-1,6-naphthyridine] gave an EC50 ([1]; Mus musculus, BaF3, 48 h) of 2.7 µM, an IC50 [2] of 0.0828 µM and an EC50 [3] of 0.061 µM.
With `c1cnc2cc(-c3ccn(C4COC4)c3)cc(OC[C@@H]3CNCCO3)c2c1` [Compound 7.12, 5-{[(2S)-morpholin-2-yl]methoxy}-7-[1-(oxetan-3-yl)-1H-pyrrol-3-yl]quinoline] the EC50 ([1]; Mus musculus, BaF3, 48 h) was 1.56 µM, the IC50 [2] was 0.0293 µM and the EC50 [3] was 0.0233 µM.
`CC1(C)CNC[C@@H](COc2cc(-c3cnn(C4CC4)c3)cc3ncccc23)O1` [Compound 3.8, 7-(1-cyclopropyl-1H-pyrazol-4-yl)-5-{[(2S)-6,6-dimethylmorpholin-2-yl]methoxy}quinoline] showed an EC50 ([1]; Mus musculus, BaF3, 48 h) of 1.97 µM, an IC50 [2] of 0.0237 µM and an EC50 [3] of 0.0509 µM.
With `Cn1ccc(-c2cc3ncccc3c(OC[C@@H]3CNCC4(CC4)O3)n2)c1` [Compound 2.60, 7-(1-methyl-1H-pyrrol-3-yl)-5-{[(5S)-4-oxa-7-azaspiro[2.5]octan-5-yl]methoxy}-1,6-naphthyridine] the EC50 ([1]; Mus musculus, BaF3, 48 h) was 4.07 µM, the IC50 [2] was 0.0246 µM and the EC50 [3] was 0.0266 µM.
`CC(C)(C)n1cc(-c2cc3ncccc3c(OC[C@@H]3CNC[C@@H](C4CC4)O3)n2)cn1` [Compound 2.103, 7-(1-tert-butyl-1H-pyrazol-4-yl)-5-{[(2S,6R)-6-cyclopropylmorpholin-2-yl]methoxy}-1,6-naphthyridine] gave an EC50 ([1]; Mus musculus, BaF3, 48 h) of 0.985 µM, an IC50 [2] of 0.0305 µM and an EC50 [3] of 0.0327 µM.
In the case of `c1cnc2cc(-c3cnn(C4CCC4)c3)nc(OC[C@@H]3CNCCO3)c2c1` [Compound 2.22, 7-(1-cyclobutyl-1H-pyrazol-4-yl)-5-{[(2S)-morpholin-2-yl]methoxy}-1,6-naphthyridine], the EC50 ([1]; Mus musculus, BaF3, 48 h) is reported as 0.694 µM, the IC50 [2] is reported as 0.0281 µM and the EC50 [3] is reported as 0.0306 µM.
In the case of `C1=C(c2cc3ncccc3c(OC[C@@H]3CNCCO3)n2)CCC1` [Compound 10.1, 7-(cyclopent-1-en-1-yl)-5-{[(2S)-morpholin-2-yl]methoxy}-1,6-naphthyridine], the EC50 ([1]; Mus musculus, BaF3, 48 h) is reported as > 10 µM, the IC50 [2] is reported as 0.209 µM and the EC50 [3] is reported as 0.487 µM.
With `CC(C)(C)n1cc(-c2cc(OC[C@@H]3CNCCCO3)c3cccnc3c2)cn1` [Compound 3.14, 7-(1-tert-butyl-1H-pyrazol-4-yl)-5-{[(2S)-1,4-oxazepan-2-yl]methoxy}quinoline] the EC50 ([1]; Mus musculus, BaF3, 48 h) was 6.49 µM, the IC50 [2] was 0.0571 µM and the EC50 [3] was 0.0545 µM.
`C[C@@H]1CNC[C@@H](COc2nc(-c3cnn(C)c3)cc3ncccc23)O1` (relative stereo) [Compound 2.25, 7-(1-methyl-1H-pyrazol-4-yl)-5-{[(rel-2S,6R)-6-methylmorpholin-2-yl]methoxy}-1,6-naphthyridine] gave an EC50 ([1]; Mus musculus, BaF3, 48 h) of 1.51 µM, an IC50 [2] of 0.039 µM and an EC50 [3] of 0.0621 µM.
`CC1(C)CNC[C@@H](COc2cc(-c3cnn(C(C)(C)C)c3)cc3ncccc23)O1` [Compound 3.2, 7-(1-tert-butyl-1H-pyrazol-4-yl)-5-{[(2S)-6,6-dimethylmorpholin-2-yl]methoxy} quinoline] gave an EC50 ([1]; Mus musculus, BaF3, 48 h) of 2.37 µM, an IC50 [2] of 0.0118 µM and an EC50 [3] of 0.0235 µM.
`Cc1ccc(-c2cc3ncccc3c(OC[C@@H]3CNCCO3)n2)s1` [Compound 2.19, 7-(5-methylthiophen-2-yl)-5-{[(2S)-morpholin-2-yl]methoxy}-1,6-naphthyridine] showed an EC50 ([1]; Mus musculus, BaF3, 48 h) of 2.78 µM, an IC50 [2] of 0.0685 µM and an EC50 [3] of 0.198 µM.
Work on `Cn1cc(-c2cc3ncccc3c(OC[C@H]3CNCCO3)n2)cn1` [Compound 2.2, 7-(1-methyl-1H-pyrazol-4-yl)-5-{[(2R)-morpholin-2-yl]methoxy}-1,6-naphthyridine] yielded an EC50 ([1]; Mus musculus, BaF3, 48 h) of 1.76 µM, an IC50 [2] of 0.13 µM and an EC50 [3] of 0.355 µM.
Work on `CC1(C)CNC[C@@H](COc2cc(-c3ccn(CC(F)F)c3)cc3ncccc23)O1` [Compound 7.6, 7-[1-(2,2-difluoroethyl)-1H-pyrrol-3-yl]-5-{[(2S)-6,6-dimethylmorpholin-2-yl]methoxy}quinoline] yielded an EC50 ([1]; Mus musculus, BaF3, 48 h) of 1.77 µM, an IC50 [2] of 0.0176 µM and an EC50 [3] of 0.0285 µM.
`COCCn1cc(-c2cc3ncccc3c(OC[C@@H]3CNCCO3)n2)cn1` [Compound 2.8, 7-[1-(2-methoxyethyl)-1H-pyrazol-4-yl]-5-{[(2S)-morpholin-2-yl]methoxy}-1,6-naphthyridine] showed an EC50 ([1]; Mus musculus, BaF3, 48 h) of 1.44 µM, an IC50 [2] of 0.0374 µM and an EC50 [3] of 0.196 µM.
`C[C@@H]1CNC[C@@H](COc2cc(-c3ccn(C(C)(C)C)c3)cc3nccnc23)O1` [Compound 12.8, 7-(1-tert-butyl-1H-pyrrol-3-yl)-5-{[(2S,6R)-6-methylmorpholin-2-yl]methoxy}quinoxaline] showed an EC50 ([1]; Mus musculus, BaF3, 48 h) of 0.703 µM, an IC50 [2] of 0.0051 µM and an EC50 [3] of 0.0013 µM.
`FC(F)Cn1ccc(-c2cc3ncccc3c(OC[C@@H]3CNCCO3)n2)c1` [Compound 6.5, 7-[1-(2,2-difluoroethyl)-1H-pyrrol-3-yl]-5-{[(2S)-morpholin-2-yl]methoxy}-1,6-naphthyridine] gave an EC50 ([1]; Mus musculus, BaF3, 48 h) of 2.14 µM, an IC50 [2] of 0.0142 µM and an EC50 [3] of 0.063 µM.
`CC(C)n1cc(-c2cc(OC[C@@H]3CNC[C@@H](C)O3)c3cccnc3c2)cn1` [Compound 3.23, 5-{[(2S,6R)-6-methylmorpholin-2-yl]methoxy}-7-[1-(propan-2-yl)-1H-pyrazol-4-yl]quinoline] showed an EC50 ([1]; Mus musculus, BaF3, 48 h) of 0.941 µM, an IC50 [2] of 0.0126 µM and an EC50 [3] of 0.0121 µM.
`COc1ccnc2cc(-c3cnn(C(C)(C)C)c3)nc(OC[C@@H]3CNCC(C)(C)O3)c12` [Compound 14.15, 7-(1-tert-butyl-1H-pyrazol-4-yl)-5-{[(2S)-6,6-dimethylmorpholin-2-yl]methoxy}-4-methoxy-1,6-naphthyridine] showed an EC50 ([1]; Mus musculus, BaF3, 48 h) of 0.519 µM, an IC50 [2] of 0.0211 µM and an EC50 [3] of 0.044 µM.
`CC(C)[C@@H]1CNC[C@@H](COc2nc(-c3cnn(C(C)(C)C)c3)cc3ncccc23)O1` [Compound 2.98, 7-(1-tert-butyl-1H-pyrazol-4-yl)-5-{[(2S,6R)-6-(propan-2-yl)morpholin-2-yl]methoxy}-1,6-naphthyridine] showed an EC50 ([1]; Mus musculus, BaF3, 48 h) of 0.846 µM, an IC50 [2] of 0.0283 µM and an EC50 [3] of 0.0186 µM.
`CC(C)(C)n1ccc(-c2cc3ncccc3c(OC[C@@H]3CNCCO3)n2)c1` [Compound 2.58, 7-(1-tert-butyl-1H-pyrrol-3-yl)-5-{[(2S)-morpholin-2-yl]methoxy}-1,6-naphthyridine] showed an EC50 ([1]; Mus musculus, BaF3, 48 h) of 6.71 µM, an IC50 [2] of 0.0096 µM and an EC50 [3] of 0.0254 µM.
Compound `Cn1cc(-c2cc3ncccc3c(OC[C@@H]3CNCC4(CC4)O3)n2)cn1` [Compound 2.43, 7-(1-methyl-1H-pyrazol-4-yl)-5-{[(5S)-4-oxa-7-azaspiro[2.5]octan-5-yl]methoxy}-1,6-naphthyridine] has an EC50 ([1]; Mus musculus, BaF3, 48 h) of 2.52 µM, an IC50 [2] of 0.0319 µM and an EC50 [3] of 0.0799 µM.
For `CC1(C)CNC[C@@H](COc2cc(-c3ccn(CC(F)F)c3)cc3nccnc23)O1` [Compound 8.5, 7-[1-(2,2-difluoroethyl)-1H-pyrrol-3-yl]-5-{[(2S)-6,6-dimethylmorpholin-2-yl]methoxy}quinoxaline], the EC50 ([1]; Mus musculus, BaF3, 48 h) was 0.735 µM, the IC50 [2] was 0.0052 µM and the EC50 [3] was 0.0045 µM.
With `CC(C)(C)n1cc(-c2cc3ncccc3c(OC[C@H]3OC[C@@H]4C[C@H]3N4)n2)cn1` (relative stereo) [Compound 2.106, 7-(1-tert-butyl-1H-pyrazol-4-yl)-5-{[rel-(1R,2S,5S)-3-oxa-6-azabicyclo[3.1.1]heptan-2-yl]methoxy}-1,6-naphthyridine] the EC50 [1] was 0.575 µM, the IC50 [2] was 0.0236 µM and the EC50 [3] was 0.0555 µM.
Work on `c1cnc2cc(-c3cn[nH]c3)nc(OC[C@@H]3CNCCO3)c2c1` [Compound 2.23, 5-{[(2S)-morpholin-2-yl]methoxy}-7-(1H-pyrazol-4-yl)-1,6-naphthyridine] yielded an EC50 ([1]; Mus musculus, BaF3, 48 h) of 5.8 µM, an IC50 [2] of 0.106 µM and an EC50 [3] of 0.44 µM.
For `COCCn1ccc(-c2cc(OC[C@@H]3CNCC4(CC4)O3)c3cccnc3c2)c1` [Compound 7.14, 7-[1-(2-methoxyethyl)-1H-pyrrol-3-yl]-5-{[(5S)-4-oxa-7-azaspiro[2.5]octan-5-yl]methoxy}quinoline], the EC50 ([1]; Mus musculus, BaF3, 48 h) was 3.21 µM, the IC50 [2] was 0.0512 µM and the EC50 [3] was 0.0225 µM.
With `FC(F)(F)n1cc(-c2cc3ncccc3c(OC[C@@H]3CNCCO3)n2)cn1` [Compound 2.16, 5-{[(2S)-morpholin-2-yl]methoxy}-7-[1-(trifluoromethyl)-1H-pyrazol-4-yl]-1,6-naphthyridine] the EC50 ([1]; Mus musculus, BaF3, 48 h) was > 10 µM, the IC50 [2] was 0.222 µM and the EC50 [3] was 0.493 µM.
`CC1(C)CNC[C@@H](COc2nc(-c3cnn(CC(F)F)c3)cc3ncccc23)O1` [Compound 6.20, 7-[1-(2,2-difluoroethyl)-1H-pyrazol-4-yl]-5-{[(2S)-6,6-dimethylmorpholin-2-yl]methoxy}-1,6-naphthyridine] showed an EC50 ([1]; Mus musculus, BaF3, 48 h) of 2.18 µM, an IC50 [2] of 0.0091 µM and an EC50 [3] of 0.0321 µM.
In the case of `CC1(C)CNC[C@@H](COc2nc(-c3ccn(C(C)(C)C)c3)cc3ncccc23)O1` [Compound 2.57, 7-(1-tert-butyl-1H-pyrrol-3-yl)-5-{[(2S)-6,6-dimethylmorpholin-2-yl]methoxy}-1,6-naphthyridine], the EC50 ([1]; Mus musculus, BaF3, 48 h) is reported as > 10 µM, the IC50 [2] is reported as 0.01 µM and the EC50 [3] is reported as 0.0216 µM.
